Data set [1] concerns Mus musculus. Briefly: Anti-pulmonary fibrosis activity in bleomycin-induced idiopathic pulmonary fibrosis C57BL/6J mouse model assessed as decrease in lung damage by measuring decrease in inflammatory cell infiltration in lungs at 25 to 50 mg/kg, ig administered daily via gavage and measured on day 14 by Masson's trichrome staining based analysis. The following applies: dose 25-50 mg/kg, time 14.0 day. In kind it is functional, organism-based.

Data set [2] has as its system RPMI-8226. Briefly: Increase in TRAIL protein expression in human RPMI-8226 cells at 0.5 uM incubated for 24 hrs by western blot analysis. It is filed as functional, cell-based. On the technique in general: In western blotting, separated proteins are transferred to a membrane and probed.
A short description of data set [3]: Toxicity against bleomycin-induced pulmonary fibrosis C57BL/6J mouse model assessed as effect on liver morphological changes at 25 to 50 mg/kg, ig administered daily via gavage and measured on day 14 by Hematoxylin-Eosin staining based analysis. It is filed as organism-based. The following applies: in vivo, po, 336 h, dose 25-50 mg/kg, time 14 day.
Data set [4] is described as follows: Toxicity against bleomycin-induced pulmonary fibrosis C57BL/6J mouse model assessed as effect on spleen morphological changes at 25 to 50 mg/kg, ig administered daily via gavage and measured on day 14 by Hematoxylin-Eosin staining based analysis. In kind it is organism-based. The conditions noted are these: in vivo, po, 336 h, dose 25-50 mg/kg, time 14 day.
Data set [5] concerns Mus musculus. As to the kind of experiment: Anti-pulmonary fibrosis activity in bleomycin-induced idiopathic pulmonary fibrosis C57BL/6J mouse model assessed as decrease in lung damage by measuring decrease in inflammatory cell infiltration in lung at 25 to 50 mg/kg, ig administered daily via gavage and measured on day 14 by Hematoxylin-Eosin staining based analysis. In kind it is functional, organism-based. The conditions noted are these: dose 25-50 mg/kg, time 14.0 day.

Data set [6] concerns the target T1, Protein deacetylase HDAC6 (Homo sapiens, UniProt Q9UBN7).
T1 sequence (Q9UBN7 whole entry): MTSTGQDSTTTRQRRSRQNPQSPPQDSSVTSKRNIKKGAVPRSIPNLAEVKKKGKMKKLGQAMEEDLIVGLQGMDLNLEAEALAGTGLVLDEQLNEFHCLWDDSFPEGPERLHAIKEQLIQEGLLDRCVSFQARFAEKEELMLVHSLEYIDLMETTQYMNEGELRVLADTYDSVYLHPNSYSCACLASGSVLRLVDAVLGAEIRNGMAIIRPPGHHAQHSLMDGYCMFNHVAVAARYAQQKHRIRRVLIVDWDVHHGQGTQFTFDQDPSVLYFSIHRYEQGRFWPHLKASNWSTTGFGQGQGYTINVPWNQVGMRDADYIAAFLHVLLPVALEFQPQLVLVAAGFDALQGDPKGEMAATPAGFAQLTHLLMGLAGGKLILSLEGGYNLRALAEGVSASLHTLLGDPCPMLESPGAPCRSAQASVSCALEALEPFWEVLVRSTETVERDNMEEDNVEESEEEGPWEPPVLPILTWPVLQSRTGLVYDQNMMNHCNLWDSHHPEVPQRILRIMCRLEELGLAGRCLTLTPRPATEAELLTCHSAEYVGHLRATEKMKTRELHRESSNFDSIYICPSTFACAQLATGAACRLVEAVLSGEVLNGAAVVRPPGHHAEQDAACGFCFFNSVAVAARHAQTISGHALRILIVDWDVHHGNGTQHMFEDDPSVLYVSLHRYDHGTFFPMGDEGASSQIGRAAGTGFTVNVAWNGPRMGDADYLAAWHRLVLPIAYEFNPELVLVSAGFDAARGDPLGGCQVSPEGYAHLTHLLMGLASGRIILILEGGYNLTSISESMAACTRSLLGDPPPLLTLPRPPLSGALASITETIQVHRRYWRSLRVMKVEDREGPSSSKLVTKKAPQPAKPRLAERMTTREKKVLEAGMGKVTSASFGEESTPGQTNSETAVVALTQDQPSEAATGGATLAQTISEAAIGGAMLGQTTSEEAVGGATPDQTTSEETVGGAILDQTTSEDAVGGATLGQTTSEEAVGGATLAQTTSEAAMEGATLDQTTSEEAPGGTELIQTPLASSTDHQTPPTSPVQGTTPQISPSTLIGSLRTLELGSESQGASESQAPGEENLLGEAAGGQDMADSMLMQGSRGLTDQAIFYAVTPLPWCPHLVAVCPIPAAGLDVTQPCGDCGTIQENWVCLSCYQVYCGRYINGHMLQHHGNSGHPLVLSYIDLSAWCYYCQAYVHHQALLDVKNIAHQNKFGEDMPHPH
Briefly: Inhibition of HDAC6 (unknown origin) incubated for 30 mins by fluorometric analysis.

Data set [7] is described as follows: Toxicity against silicosis C57BL/6J mouse model assessed as uric acid level in serum at 50 mg/kg, ig administered daily via gavage and measured on day 28. In kind it is organism-based. The conditions noted are these: in vivo, po, 672 h, time 28 day.
The subject of data set [8] is Mus musculus. Briefly: Anti-pulmonary fibrosis activity in bleomycin-induced idiopathic pulmonary fibrosis C57BL/6J mouse model assessed as decrease in lung damage by measuring decrease in collagen deposition in lung at 25 to 50 mg/kg, ig administered daily via gavage and measured on day 14 by Hematoxylin-Eosin staining based analysis. It is filed as functional, organism-based. The following applies: dose 25-50 mg/kg, time 14.0 day.

Data set [9] is described as follows: Toxicity against silicosis C57BL/6J mouse model assessed as effect on kidney morphological changes at 50 mg/kg, ig administered daily via gavage and measured on day 28 by Hematoxylin-Eosin staining based analysis. In kind it is organism-based. The following applies: in vivo, po, 672 h, time 28 day.
Data set [10] has as its target T2, Protein deacetylase HDAC6 (Homo sapiens) (UniProt Q9UBN7).
T2 sequence (whole entry): T1 sequence (Q9UBN7 whole entry)
As to the kind of experiment: Inhibition of HDAC6 in human RPMI-8226 cells assessed as increase in acetylated alpha-tubulin level at 1 uM incubated for 24 hrs by western blot analysis. In kind it is cell-based.

Data set [11] is described as follows: Toxicity against silicosis C57BL/6J mouse model assessed as ALT index in serum at 50 mg/kg, ig administered daily via gavage and measured on day 28. It is filed as organism-based. The following applies: in vivo, po, 672 h, time 28 day.
Data set [12] relates to Mus musculus. As to the kind of experiment: Anti-pulmonary fibrosis activity in bleomycin-induced idiopathic pulmonary fibrosis C57BL/6J mouse model assessed as decrease in lung damage by measuring decrease in collagen deposition in lung at 25 to 50 mg/kg, ig administered daily via gavage and measured on day 14 by Sirius red staining based analysis. In kind it is functional, organism-based. The following applies: dose 25-50 mg/kg, time 14.0 day.

Data set [13] deals with Histone deacetylase 3 (Homo sapiens, UniProt O15379). As to the kind of experiment: Inhibition of HDAC3 (unknown origin) incubated for 30 mins by fluorometric analysis.
Data set [14] can be described thus: Toxicity against silicosis C57BL/6J mouse model assessed as effect on spleen morphological changes at 50 mg/kg, ig administered daily via gavage and measured on day 28 by Hematoxylin-Eosin staining based analysis. It is filed as organism-based. The following applies: in vivo, po, 672 h, time 28 day.
Data set [15] in a line: Toxicity against silicosis C57BL/6J mouse model assessed as effect on heart morphological changes at 50 mg/kg, ig administered daily via gavage and measured on day 28 by Hematoxylin-Eosin staining based analysis. It is filed as organism-based. The conditions noted are these: in vivo, po, 672 h, time 28 day.

This note sets out measurements from ChEMBL document CHEMBL6092154, “Design, synthesis, and evaluation of a novel TRAIL-activated HDAC6 inhibitor for the treatment of pulmonary fibrosis” (Bioorg Med Chem, 2024).

pIC50: −log10 of the molar value. Calls of active or inactive are those of the source. No cut-off for these calls is given here.

Sequence of Histone deacetylase 3 (O15379 whole entry): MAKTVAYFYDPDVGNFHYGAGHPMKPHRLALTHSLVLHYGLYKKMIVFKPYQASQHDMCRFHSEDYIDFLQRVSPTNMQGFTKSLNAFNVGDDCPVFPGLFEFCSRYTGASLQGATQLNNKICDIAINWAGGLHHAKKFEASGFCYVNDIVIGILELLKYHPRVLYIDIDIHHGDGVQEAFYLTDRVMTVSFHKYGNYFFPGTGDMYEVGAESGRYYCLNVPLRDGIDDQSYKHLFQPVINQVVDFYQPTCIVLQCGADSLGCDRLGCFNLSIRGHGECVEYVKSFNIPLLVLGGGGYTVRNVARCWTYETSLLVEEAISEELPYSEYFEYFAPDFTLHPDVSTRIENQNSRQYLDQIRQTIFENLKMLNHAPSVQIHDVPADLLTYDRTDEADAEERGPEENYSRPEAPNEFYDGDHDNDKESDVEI

What is called pIC50 is −log10 of the IC50, conventionally taken in molar units. Higher therefore signals a small IC50. Regarding `O=C(NO)c1ccc(CN2C(=O)C3=C(CCN(Cc4cccc(Cl)c4)C3)N3CCN=C23)cc1`, the outcome in data set [1], in data set [5], in data set [8] and in [12] was Active. Also, the Activity result in data set [2] is “Active; Comparable Activity To 1 Um Compound Iic And Greater Activity Compared To 1 Um Chidamide, Acy-1215”; in data set [3], “Non-toxic”; in data set [4], “Non-toxic”; in data set [7] it was “Non-toxic”; in [9], “Non-toxic”; in [11] it was “Non-toxic”. In addition, the Activity entry in [14] and in [15] was “Non-toxic” each time. The negative-log IC50 (pIC50) in data set [6] was 7.37; in data set [13], 5.94. In addition, the inhibition entry in data set [10] was “Active; Intensity Of Increase Slightly Lower Than Positive Drug, Acy-1215”.
